Columns and labels:
Assay type in all cases: functional
OCI-Ly10 [1] = experiment: Growth inhibition of human OCILY10 cells at 0.003 uM incubated for 3 days (Rvb= -3%); conditions: OCI-Ly10, 72 h, time 3 day, read-out: GI
SUD4 [2] = experiment: Growth inhibition of human SU-DHL-4 cells at 0.17 uM incubated for 3 days (reference value: -1%); conditions: SU-DHL-4, 72 h, time 3 day, read-out: GI
OCI-Ly10 [3] = experiment: Growth inhibition of human OCILY10 cells at 0.17 uM incubated for 3 days (Rvb= -2%); conditions: OCI-Ly10, 72 h, time 3 day, read-out: GI
OCI-Ly10 [4] = experiment: Growth inhibition of human OCILY10 cells at 0.033 uM incubated for 3 days (reference value: -2%); conditions: OCI-Ly10, 72 h, time 3 day, read-out: GI
OCI-Ly10 [5] = experiment: Growth inhibition of human OCILY10 cells at 0.017 uM incubated for 3 days (reference value: -2%); conditions: OCI-Ly10, 72 h, time 3 day, read-out: GI
SUD4 [6] = experiment: Growth inhibition of human SU-DHL-4 cells at 0.17 uM incubated for 3 days (reference value: 2%); conditions: SU-DHL-4, 72 h, time 3 day, read-out: GI
OCI-Ly10 [7] = experiment: Growth inhibition of human OCILY10 cells at 0.017 uM incubated for 3 days (Rvb= -3%); conditions: OCI-Ly10, 72 h, time 3 day, read-out: GI
SUD4 [8] = experiment: Growth inhibition of human SU-DHL-4 cells at 0.017 uM incubated for 3 days (reference value: 2%); conditions: SU-DHL-4, 72 h, time 3 day, read-out: GI
OCI-Ly10 [9] = experiment: Growth inhibition of human OCILY10 cells at 3.3 uM incubated for 3 days (Rvb= -3%); conditions: OCI-Ly10, 72 h, time 3 day, read-out: GI
SUD4 [10] = experiment: Growth inhibition of human SU-DHL-4 cells at 0.033 uM incubated for 3 days (reference value: 2%); conditions: SU-DHL-4, 72 h, time 3 day, read-out: GI
OCI-Ly10 [11] = experiment: Growth inhibition of human OCILY10 cells at 0.33 uM incubated for 3 days (reference value: -2%); conditions: OCI-Ly10, 72 h, time 3 day, read-out: GI
SUD4 [12] = experiment: Growth inhibition of human SU-DHL-4 cells at 0.003 uM incubated for 3 days (reference value: -1%); conditions: SU-DHL-4, 72 h, time 3 day, read-out: GI
OCI-Ly10 [13] = experiment: Growth inhibition of human OCILY10 cells at 0.003 uM incubated for 3 days (reference value: -2%); conditions: OCI-Ly10, 72 h, time 3 day, read-out: GI
SUD4 [14] = experiment: Growth inhibition of human SU-DHL-4 cells at 0.33 uM incubated for 3 days (reference value: 2%); conditions: SU-DHL-4, 72 h, time 3 day, read-out: GI
SUD4 [15] = experiment: Growth inhibition of human SU-DHL-4 cells at 0.003 uM incubated for 3 days (reference value: 2%); conditions: SU-DHL-4, 72 h, time 3 day, read-out: GI
SUD4 [16] = experiment: Growth inhibition of human SU-DHL-4 cells at 0.033 uM incubated for 3 days (reference value: -1%); conditions: SU-DHL-4, 72 h, time 3 day, read-out: GI
OCI-Ly10 [17] = experiment: Growth inhibition of human OCILY10 cells at 0.033 uM incubated for 3 days (Rvb= -3%); conditions: OCI-Ly10, 72 h, time 3 day, read-out: GI
SUD4 [18] = experiment: Growth inhibition of human SU-DHL-4 cells at 0.017 uM incubated for 3 days (reference value: -1%); conditions: SU-DHL-4, 72 h, time 3 day, read-out: GI
OCI-Ly10 [19] = experiment: Growth inhibition of human OCILY10 cells at 1.7 uM incubated for 3 days (Rvb= -3%); conditions: OCI-Ly10, 72 h, time 3 day, read-out: GI
SUD4 [20] = experiment: Growth inhibition of human SU-DHL-4 cells at 0.33 uM incubated for 3 days (reference value: -1%); conditions: SU-DHL-4, 72 h, time 3 day, read-out: GI

CC#CC(=O)N1CCC[C@H]1c1nc(-c2ccc(C(=O)Nc3ccccn3)cc2)c2c(N)nccn12 [ACALABRUTINIB]
inhibition of growth at 0.003 µM (OCI-Ly10 [1]): 13% | inhibition of growth at 0.17 µM (SUD4 [2]): -3% | inhibition of growth at 0.17 µM (OCI-Ly10 [3]): 111% | inhibition of growth at 0.033 µM (OCI-Ly10 [4]): 92% | inhibition of growth at 0.017 µM (OCI-Ly10 [5]): 77% | inhibition of growth at 0.17 µM (SUD4 [6]): 2% | inhibition of growth at 0.017 µM (OCI-Ly10 [7]): 71% | inhibition of growth at 0.017 µM (SUD4 [8]): 2% | inhibition of growth at 3.3 µM (OCI-Ly10 [9]): 113% | inhibition of growth at 0.033 µM (SUD4 [10]): 2% | inhibition of growth at 0.33 µM (OCI-Ly10 [11]): 115% | inhibition of growth at 0.003 µM (SUD4 [12]): -1% | inhibition of growth at 0.003 µM (OCI-Ly10 [13]): 16% | inhibition of growth at 0.33 µM (SUD4 [14]): 2% | inhibition of growth at 0.003 µM (SUD4 [15]): 2% | inhibition of growth at 0.033 µM (SUD4 [16]): -3% | inhibition of growth at 0.033 µM (OCI-Ly10 [17]): 88% | inhibition of growth at 0.017 µM (SUD4 [18]): -1% | inhibition of growth at 1.7 µM (OCI-Ly10 [19]): 108% | inhibition of growth at 0.33 µM (SUD4 [20]): -1%
